Laboratory results: patent publication US20250345283A1, “MACROPHAGE-DERIVED ENGINEERED VESICLES FOR TARGETED DELIVERY AND TREATMENT” (University of Kentucky Research Foundation, priority 2020, published 2025)

Columns and labels:
A549 xenograft [1] = assay: In vivo targeting of DiR-labeled cell-derived vesicles, IVIS imaging; parameters: species or system mouse; conditions: tail vein injection, imaging 24 h postinjection
Procedure: Athymic nude mice were injected with A549 cells (NSCLC, immortalized) in the right shoulder and monitored for 3-4 weeks until measurable xenograft tumors were observed. RAW cells were cultured in vitro by standard methods. Cell-derived vesicles were manufactured by the Richards lab as described above and loaded with DiR near-infrared fluorescent dye. Prepared vesicles were administered, and mice were then imaged approximately 24, 48, and 72 hours later. Mice were anesthetized for imaging using isoflurane. Epifluorescence was measured using an IVIS Spectrum In vivo Imaging System (PerkinElmer). Vesicles were labeled with DiR near-infrared fluorescent dye, which was excited at 710 nm, with emission measured at 780 nm. Fluorescent signal intensity (i.e., total radiant efficiency) within regions of interest (ROI) were quantified using Living Image software (PerkinElmer), correcting for background fluorescence using distal site ROI within the same mouse.
RAW264.7 cells (100 million) were scraped in 40 mL of sucrose buffer solution with protease inhibitor. Vesicles were prepared as described above. The cells were labeled using DiR at 2 μM for 30 min at 37° C. Samples were injected intravenously to the mouse, through the tail vein. Approximately 1×10^11 vesicles were delivered per injection. All animal experiments were repeated three times. […]

A549 xenograft [2] = assay: In vivo delivery of DiR-labeled M1EVs to tumor xenografts, IVIS imaging; parameters: species or system mouse; conditions: 2×10^10 vesicles, tail vein, imaging 48 and 72 h post injection
Procedure: A549 cells (1×10^6) were injected subcutaneously into the interscapular region of 6-week-old athymic nude mice. The mice were monitored until palpable xenograft tumors developed greater than 200 mm3. M1EVs were generated using 100 million M1 macrophages by the procedure mentioned above. A NanoSight 300 multiple particle tracking system was used to determine the mean diameter and the concentration of MEVs. M1EVs were then labeled with the DiR near-infrared fluorescent dye. Briefly, 1 μL of 1 mM DiR was added to 199 μL of the vesicle resuspension so that the final concentration of DiR in the vesicle resuspension was 5 µM. DiR-labeled vesicles were separated from free DiR using a size exclusion PD MidiTrap column equilibrated with PBS. 100 μL of DiR-labeled M1EVs was then injected into the lateral tail vein of tumor-bearing mice. Isoflurane gas was used to anesthetize mice for imaging 72 h post injection using an IVIS Spectrum In vivo Imaging System (PerkinElmer) controlled with LivingImage software (PerkinElmer). Epifluorescence images were obtained using 710 nm excitation and 760 nm emission filters, f/stop number 4 and binning factor 4, with a 35 s exposure.
The free dye was separated from MEVs using PD Miniprep columns. […] After the tumor xenograft reached at least 100 mm3, 2×10^10 vesicles were injected through the tail vein of each of the three different mice. […]

M2 macrophages = assay: Uptake of M1EVs by M2 macrophages in the presence of dynasore; format: cell-based, mouse; conditions: Dynasore 80 μM
Procedure: Dynamin activity is an integral component of both endocytosis and phagocytosis. Dynasore, a dynamin inhibitor, has been widely used to study the process of internalization of exosomes from the surface of the macrophage. […] The uptake of fluorescently labeled M1EVs by M2 BMDMs was compared in the presence and absence of dynasore. Dynasore (80 μM) was added to cultured macrophages 20 min prior to the addition of labeled vesicles. M2 macrophages were left to incubate with M1EVs for 2 h and subsequently imaged by wide-field microscopy. […] The integrated density of the fluorescence signal was calculated to compare the uptake of M1EVs by M2 macrophages. […] Similar vesicle uptake control experiments were performed in the presence of the vehicle, DMSO, at an equal concentration. There was no significant effect of DMSO on the M1EV uptake process by M2 macrophages relative to the control with no DMSO or dynasore. Macrophages are well-established phagocytotic cells.

A549 cells = assay: A549 cell viability (alamar blue) after cisplatin-loaded A549 vesicles or free cisplatin; format: cell-based, human; conditions: cisplatin 3 μg
Procedure: A549 cells (60 million) were used to generate vesicles for delivery. Cells were scraped from culture in 20 mL of sucrose buffer containing protease inhibitor. The cell solution was collected in a 50 mL conical tube and pelleted at 2000 rpm at 25° C. for 2 min. The solution was aspirated off, and the pellet was resuspended in 8 mL of 8.33 mM cisplatin in sucrose buffer solution or 20 mg cisplatin/8 mL sucrose buffer solution plus protease inhibitor. The cell solution was fragmented using N2 cavitation at 300 psi at 4° C. for 5 min. The resulting cell slurry was centrifuged at 4000 g for 10 min at 4° C. The supernatant from centrifugation was transferred to a 25 mL ultracentrifuge tube for 10,000 g centrifugation for 20 min at 4° C. The supernatant from the UCF tube was then transferred to a new 25 mL ultracentrifuge tube and centrifuged at 100,000 g for 60 min at 4° C. The pellet in the UCF tube was washed with 500 μL of sucrose solution, and the residual solution was pipetted out and discarded. Seven hundred fifty microliters of sucrose buffer solution was added to the UCF tube, and the pellet was resuspended via pipetting. Empty vesicles were generated in the exact same way except in the absence of cisplatin. A549 cells (30,000) were plated in each well of a 96-well plate and allowed to seed for 24 h. During that time, the growth media was exchanged for 250 μL of fresh HEK media containing either cisplatin in solution (4.17 mM), cisplatin-loaded vesicles, empty vesicles, or untreated media cisplatin solution in HEK media. The media was aspirated off. Two hundred microliters of Optimem was added followed by 20 μL of alamar blue. […] The plate was read using a FlexStation plate reader. […] Cell viability was determined using a fluorescence assay (alamar blue), where the fluorescence intensity scales with the population of live cells. […] Vesicles were then added to A549 cells in culture, and the cell proliferation was compared to cells alone and those in the presence of free cisplatin in solution at the same levels (3 μg) as were measured in the vesicle solution. […]

## CCCCCCCCCCCCCCCCCCN1/C(=C/C=C/C=C/C=C/C2=[N+](CCCCCCCCCCCCCCCCCC)c3ccccc3C2(C)C)C(C)(C)c2ccccc21.[I-] [DiR]
A549 xenograft [1]
  localisation of DiR fluorescence in tumor-bearing mice: nonspecific accumulation
A549 xenograft [2]
  localisation of DiR fluorescence in tumor-bearing mice: nonspecific accumulation

## O=C(N/N=C/c1ccc(O)c(O)c1)c1cc2ccccc2cc1O [Dynasore]
M2 macrophages
  effect on cell viability of macrophages: no effect on the cell viability
M2 macrophages; M1EVs with M2 macrophages 2 h
  reduction in uptake of vesicles relative to the control: 64%

## N.N.[Cl][Pt][Cl] [free cisplatin, cisplatin]
A549 cells; 24 h
  A549 cell death: no apparent cell death
A549 cells; 48 h
  A549 cell death: 15%
A549 cells; 72 h
  A549 cell death: 50%
